Common to all, as to test: Test Example-1: herbicidal effect by a treatment before weeds are generated under submerged conditions
Common to all, as to type: in vivo
Common to all, as to details: 500 g a.i/ha, pre-emergence treatment, about 15 days after treatment, score 0-5

In assay [1] the test system is Echinochloa oryzicola (barnyard grass). Here is the method: (§1) Using the formulation prepared according to the methods described above, the herbicidal effect of the bicyclic pyrazolinone derivative of the invention according to the methods shown in Test Examples below was examined. The herbicidal effect with respect to the test weeds or the phytotoxicity with respect to the test crops was examined according to the following criteria, and evaluated in six stage scores of 0 to 5.
(§2) A plastic cup of 30 cm^2 was filled with paddy soil, soil puddling was performed, seeds of Echinochloa oryzicola (barnyard grass), Cyperus difformis (smallflower umbrella plant), Monochoria vaginalis (monochoria), Scirpus juncoides (bulrush), and Eleocharis acicularis (needle spikerush), and Lindernia procumbens (common false pimpernel), Rotala indica (indian toothcup), Elatine triandra (waterwort) as other annual broad leaf weeds were seeded therein, and kept in a submerged state. A wettable powder or an emulsifiable concentrate of the compound of the present invention prepared according to Formulation Example was diluted on the weed seeding day, and a submersing treatment was performed so as to be a predetermined dosage. The herbicidal effect with respect to the test weeds about 15 days after the treatment was evaluated according to the evaluation criteria in six stages of 0 to 5 described above.

Assay [2] deals with other annual broad leaf weeds (Lindernia procumbens, Rotala indica, Elatine triandra). Here is the method: as §1, §2
Assay [3] concerns Scirpus juncoides (bulrush). Here is the method:
as §1, §2

In assay [4] the test system is Monochoria vaginalis (monochoria). The protocol: as §1, §2
In assay [5] the test system is Eleocharis acicularis (needle spikerush). The protocol: as §1, §2
The test system of assay [6] is Cyperus difformis (smallflower umbrella plant). The protocol:
as §1, §2

Consider `CC(C)(C)OC(=O)COc1cc(-c2c(Cl)n3n(c2=O)CCCC3)c(F)cc1Cl` [Example 1-165], for which, in assay [1], the “Herbicidal effect Echinochloa oryzicola” value was 5 (Herbicidal effect/phytotoxicity was 90% or greater). The “Herbicidal effect Broadleaf weed” value in assay [2] is given as 5 (Herbicidal effect/phytotoxicity was 90% or greater). Moreover, the “Herbicidal effect Scirpus juncoides” value in assay [3] is recorded as 5 (Herbicidal effect/phytotoxicity was 90% or greater). In addition, the “Herbicidal effect Monochoria vaginalis” value in assay [4] is recorded as 5 (Herbicidal effect/phytotoxicity was 90% or greater). For the same molecule, the “Herbicidal effect Eleocharis acicularis” value in assay [5] was 5 (Herbicidal effect/phytotoxicity was 90% or greater). For the same molecule, the “Herbicidal effect Cyperus difformis” value in assay [6] is 5 (Herbicidal effect/phytotoxicity was 90% or greater).

Regarding `COc1ccc(Oc2cc(-c3c(Cl)n4n(c3=O)CCCC4)c(F)cc2Cl)cc1` [Compound 3-7], the “Herbicidal effect Echinochloa oryzicola” value in assay [1] is 5 (Herbicidal effect/phytotoxicity was 90% or greater). Also, in assay [2], the “Herbicidal effect Broadleaf weed” value is 5 (Herbicidal effect/phytotoxicity was 90% or greater). Also, in assay [3], the “Herbicidal effect Scirpus juncoides” value is given as 5 (Herbicidal effect/phytotoxicity was 90% or greater). The “Herbicidal effect Monochoria vaginalis” value in assay [4] is 5 (Herbicidal effect/phytotoxicity was 90% or greater). In assay [5], the “Herbicidal effect Eleocharis acicularis” value was 5 (Herbicidal effect/phytotoxicity was 90% or greater). Moreover, in assay [6], the “Herbicidal effect Cyperus difformis” value is 5 (Herbicidal effect/phytotoxicity was 90% or greater).

Regarding `C=CCOC(=O)C=C(COc1cc(-c2c(Cl)n3n(c2=O)CCCC3)c(F)cc1Cl)OCC` (mixture of isomers) [Compound 2-11], the “Herbicidal effect Echinochloa oryzicola” value in assay [1] is reported as 5 (Herbicidal effect/phytotoxicity was 90% or greater). The “Herbicidal effect Broadleaf weed” value in assay [2] is listed as 5 (Herbicidal effect/phytotoxicity was 90% or greater). Also, the “Herbicidal effect Scirpus juncoides” value in assay [3] is on record as 5 (Herbicidal effect/phytotoxicity was 90% or greater). In addition, the “Herbicidal effect Monochoria vaginalis” value in assay [4] is 5 (Herbicidal effect/phytotoxicity was 90% or greater). The “Herbicidal effect Eleocharis acicularis” value in assay [5] is 5 (Herbicidal effect/phytotoxicity was 90% or greater). Moreover, the “Herbicidal effect Cyperus difformis” value in assay [6] is reported as 5 (Herbicidal effect/phytotoxicity was 90% or greater).

Regarding `CCCOC(=CC(=O)OC)COc1cc(-c2c(Cl)n3n(c2=O)CCCC3)c(F)cc1Cl` (mixture of isomers) [Compound 2-13], the “Herbicidal effect Echinochloa oryzicola” value in assay [1] is recorded as 5 (Herbicidal effect/phytotoxicity was 90% or greater). In addition, the “Herbicidal effect Broadleaf weed” value in assay [2] was 5 (Herbicidal effect/phytotoxicity was 90% or greater). Moreover, the “Herbicidal effect Scirpus juncoides” value in assay [3] is 5 (Herbicidal effect/phytotoxicity was 90% or greater). Moreover, the “Herbicidal effect Monochoria vaginalis” value in assay [4] is reported as 5 (Herbicidal effect/phytotoxicity was 90% or greater). In addition, in assay [5], the “Herbicidal effect Eleocharis acicularis” value is recorded as 5 (Herbicidal effect/phytotoxicity was 90% or greater). Also, in assay [6], the “Herbicidal effect Cyperus difformis” value was 5 (Herbicidal effect/phytotoxicity was 90% or greater).

As to `O=c1c(-c2cc(Oc3cccc(O)c3)c(Cl)cc2F)c(Cl)n2n1CCCC2` [Compound 3-4], in assay [1], the “Herbicidal effect Echinochloa oryzicola” value was 5 (Herbicidal effect/phytotoxicity was 90% or greater). Besides, in assay [2], the “Herbicidal effect Broadleaf weed” value is listed as 5 (Herbicidal effect/phytotoxicity was 90% or greater). In addition, the “Herbicidal effect Scirpus juncoides” value in assay [3] is reported as 5 (Herbicidal effect/phytotoxicity was 90% or greater). Besides, the “Herbicidal effect Monochoria vaginalis” value in assay [4] is listed as 5 (Herbicidal effect/phytotoxicity was 90% or greater). Also, in assay [5], the “Herbicidal effect Eleocharis acicularis” value is on record as 5 (Herbicidal effect/phytotoxicity was 90% or greater). The “Herbicidal effect Cyperus difformis” value in assay [6] is 5 (Herbicidal effect/phytotoxicity was 90% or greater).

As for `CCCOC(=CC(=O)OCC(C)C)COc1cc(-c2c(Cl)n3n(c2=O)CCCC3)c(F)cc1Cl` [Compound 2-34], the “Herbicidal effect Echinochloa oryzicola” value in assay [1] was 5 (Herbicidal effect/phytotoxicity was 90% or greater). Further, the “Herbicidal effect Broadleaf weed” value in assay [2] is 5 (Herbicidal effect/phytotoxicity was 90% or greater). Further, the “Herbicidal effect Scirpus juncoides” value in assay [3] is recorded as 5 (Herbicidal effect/phytotoxicity was 90% or greater). Moreover, the “Herbicidal effect Monochoria vaginalis” value in assay [4] is 5 (Herbicidal effect/phytotoxicity was 90% or greater). In assay [5], the “Herbicidal effect Eleocharis acicularis” value is reported as 5 (Herbicidal effect/phytotoxicity was 90% or greater). For the same molecule, in assay [6], the “Herbicidal effect Cyperus difformis” value is listed as 5 (Herbicidal effect/phytotoxicity was 90% or greater).

Take `CC1(COc2cc(-c3c(Cl)n4n(c3=O)CCCC4)c(F)cc2Cl)CC(c2ccc(F)cc2)=NO1` (stereo not drawn) [Compound 4-7]: the “Herbicidal effect Echinochloa oryzicola” value in assay [1] is reported as 5 (Herbicidal effect/phytotoxicity was 90% or greater). Further, the “Herbicidal effect Broadleaf weed” value in assay [2] is 5 (Herbicidal effect/phytotoxicity was 90% or greater). In assay [3], the “Herbicidal effect Scirpus juncoides” value was 5 (Herbicidal effect/phytotoxicity was 90% or greater). In assay [4], the “Herbicidal effect Monochoria vaginalis” value was 5 (Herbicidal effect/phytotoxicity was 90% or greater). Besides, the “Herbicidal effect Eleocharis acicularis” value in assay [5] is given as 5 (Herbicidal effect/phytotoxicity was 90% or greater). In addition, the “Herbicidal effect Cyperus difformis” value in assay [6] is given as 5 (Herbicidal effect/phytotoxicity was 90% or greater).

For the molecule `O=c1c(-c2cc(OCC3CCCC3)c(Cl)cc2F)c(Cl)n2n1CCCC2` [Example 1-186], the “Herbicidal effect Echinochloa oryzicola” value in assay [1] was 5 (Herbicidal effect/phytotoxicity was 90% or greater). The “Herbicidal effect Broadleaf weed” value in assay [2] is recorded as 5 (Herbicidal effect/phytotoxicity was 90% or greater). For the same molecule, in assay [3], the “Herbicidal effect Scirpus juncoides” value was 5 (Herbicidal effect/phytotoxicity was 90% or greater). The “Herbicidal effect Monochoria vaginalis” value in assay [4] was 5 (Herbicidal effect/phytotoxicity was 90% or greater). Also, the “Herbicidal effect Eleocharis acicularis” value in assay [5] is given as 5 (Herbicidal effect/phytotoxicity was 90% or greater). For the same molecule, the “Herbicidal effect Cyperus difformis” value in assay [6] is given as 5 (Herbicidal effect/phytotoxicity was 90% or greater).

As for `COCOc1cccc(Oc2cc(-c3c(Cl)n4n(c3=O)CCCC4)c(F)cc2Cl)c1` [Compound 3-14], the “Herbicidal effect Echinochloa oryzicola” value in assay [1] is listed as 5 (Herbicidal effect/phytotoxicity was 90% or greater). The “Herbicidal effect Broadleaf weed” value in assay [2] is recorded as 5 (Herbicidal effect/phytotoxicity was 90% or greater). Further, the “Herbicidal effect Scirpus juncoides” value in assay [3] is given as 5 (Herbicidal effect/phytotoxicity was 90% or greater). For the same molecule, the “Herbicidal effect Monochoria vaginalis” value in assay [4] was 5 (Herbicidal effect/phytotoxicity was 90% or greater). Also, the “Herbicidal effect Eleocharis acicularis” value in assay [5] was 5 (Herbicidal effect/phytotoxicity was 90% or greater). In addition, the “Herbicidal effect Cyperus difformis” value in assay [6] is 5 (Herbicidal effect/phytotoxicity was 90% or greater).

With `C=C(C)COc1cc(-c2c(Cl)n3n(c2=O)CCCC3)c(F)cc1F` [Example 1-109], the “Herbicidal effect Echinochloa oryzicola” value in assay [1] is 5 (Herbicidal effect/phytotoxicity was 90% or greater). Further, the “Herbicidal effect Broadleaf weed” value in assay [2] was 5 (Herbicidal effect/phytotoxicity was 90% or greater). In addition, the “Herbicidal effect Scirpus juncoides” value in assay [3] is on record as 5 (Herbicidal effect/phytotoxicity was 90% or greater). Further, in assay [4], the “Herbicidal effect Monochoria vaginalis” value was 5 (Herbicidal effect/phytotoxicity was 90% or greater). For the same molecule, the “Herbicidal effect Eleocharis acicularis” value in assay [5] is listed as 5 (Herbicidal effect/phytotoxicity was 90% or greater). For the same molecule, the “Herbicidal effect Cyperus difformis” value in assay [6] is reported as 5 (Herbicidal effect/phytotoxicity was 90% or greater).

With `O=c1c(-c2cc(Oc3c(F)cc(C(F)(F)F)cc3Cl)c(Cl)cc2F)c(Cl)n2n1CCCC2` [Example 1-254], the “Herbicidal effect Echinochloa oryzicola” value in assay [1] is reported as 5 (Herbicidal effect/phytotoxicity was 90% or greater). In assay [2], the “Herbicidal effect Broadleaf weed” value is on record as 5 (Herbicidal effect/phytotoxicity was 90% or greater). Also, in assay [3], the “Herbicidal effect Scirpus juncoides” value is 5 (Herbicidal effect/phytotoxicity was 90% or greater). In assay [4], the “Herbicidal effect Monochoria vaginalis” value is recorded as 5 (Herbicidal effect/phytotoxicity was 90% or greater). The “Herbicidal effect Eleocharis acicularis” value in assay [5] is given as 5 (Herbicidal effect/phytotoxicity was 90% or greater). Besides, in assay [6], the “Herbicidal effect Cyperus difformis” value was 5 (Herbicidal effect/phytotoxicity was 90% or greater).

Consider `CCOC(=O)C(Cl)Cc1cc(-c2c(Cl)n3n(c2=O)CCCC3)c(F)cc1Cl` (stereo not drawn) [Example 1-260], for which the “Herbicidal effect Echinochloa oryzicola” value in assay [1] is reported as 5 (Herbicidal effect/phytotoxicity was 90% or greater). Further, in assay [2], the “Herbicidal effect Broadleaf weed” value is 5 (Herbicidal effect/phytotoxicity was 90% or greater). In addition, the “Herbicidal effect Scirpus juncoides” value in assay [3] was 5 (Herbicidal effect/phytotoxicity was 90% or greater). For the same molecule, the “Herbicidal effect Monochoria vaginalis” value in assay [4] was 5 (Herbicidal effect/phytotoxicity was 90% or greater). In addition, the “Herbicidal effect Eleocharis acicularis” value in assay [5] is 5 (Herbicidal effect/phytotoxicity was 90% or greater). Also, the “Herbicidal effect Cyperus difformis” value in assay [6] was 5 (Herbicidal effect/phytotoxicity was 90% or greater).

Consider `O=c1c(-c2ccc(Cl)cc2Cl)c(Cl)n2n1CCCC2` [Example 1-280], for which the “Herbicidal effect Echinochloa oryzicola” value in assay [1] is recorded as 5 (Herbicidal effect/phytotoxicity was 90% or greater). Further, the “Herbicidal effect Broadleaf weed” value in assay [2] is reported as 5 (Herbicidal effect/phytotoxicity was 90% or greater). Also, in assay [3], the “Herbicidal effect Scirpus juncoides” value was 5 (Herbicidal effect/phytotoxicity was 90% or greater). In addition, in assay [4], the “Herbicidal effect Monochoria vaginalis” value is 5 (Herbicidal effect/phytotoxicity was 90% or greater). Further, the “Herbicidal effect Eleocharis acicularis” value in assay [5] was 5 (Herbicidal effect/phytotoxicity was 90% or greater). Moreover, the “Herbicidal effect Cyperus difformis” value in assay [6] is given as 5 (Herbicidal effect/phytotoxicity was 90% or greater).

The values above are taken from patent US9580444B2, “Polycyclic pyrazolinone derivative and herbicide comprising same as effective component thereof” (priority 2013, dated 2017).
